Activity calls are given as the source filed them.
Tests used:
[1] = cytotoxicity in HeLa cells, dose response, cytotoxicity control, cell-based, plate reader, dry powder (AID 651946); assay type: functional
[2] = target: NAD-dependent protein deacylase sirtuin-5, mitochondrial (Homo sapiens, UniProt Q9NXA8); assay: SIRT5 desuccinylase inhibitors, dose response, biochemical, fluorescence imaging, cherry-pick, set 5 (AID 720591);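 note: desuccinylation of succinyl peptide AMC substrate read as fluorescence after trypsin release; potency of inhibitors that lower fluorescence and may act on trypsin instead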
NAD-dependent protein deacylase sirtuin-5, mitochondrial, sequence (Q9NXA8 whole entry): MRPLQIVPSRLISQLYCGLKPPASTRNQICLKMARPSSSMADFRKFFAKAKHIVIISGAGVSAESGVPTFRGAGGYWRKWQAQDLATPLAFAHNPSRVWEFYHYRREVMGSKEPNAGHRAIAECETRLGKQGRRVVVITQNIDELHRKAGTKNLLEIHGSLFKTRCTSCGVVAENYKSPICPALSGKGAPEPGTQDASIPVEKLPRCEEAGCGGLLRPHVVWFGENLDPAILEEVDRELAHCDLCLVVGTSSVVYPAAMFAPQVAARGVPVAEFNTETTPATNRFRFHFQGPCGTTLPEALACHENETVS

[3] = target: Metabotropic glutamate receptor 5 (Rattus norvegicus, UniProt P31424); assay: Identification of a glycine sulfonamide based non-MPEP site positive allosteric potentiator (PAM) of mGlu5 (calcium_assay).; assay type: functional
Metabotropic glutamate receptor 5, sequence (P31424 whole entry): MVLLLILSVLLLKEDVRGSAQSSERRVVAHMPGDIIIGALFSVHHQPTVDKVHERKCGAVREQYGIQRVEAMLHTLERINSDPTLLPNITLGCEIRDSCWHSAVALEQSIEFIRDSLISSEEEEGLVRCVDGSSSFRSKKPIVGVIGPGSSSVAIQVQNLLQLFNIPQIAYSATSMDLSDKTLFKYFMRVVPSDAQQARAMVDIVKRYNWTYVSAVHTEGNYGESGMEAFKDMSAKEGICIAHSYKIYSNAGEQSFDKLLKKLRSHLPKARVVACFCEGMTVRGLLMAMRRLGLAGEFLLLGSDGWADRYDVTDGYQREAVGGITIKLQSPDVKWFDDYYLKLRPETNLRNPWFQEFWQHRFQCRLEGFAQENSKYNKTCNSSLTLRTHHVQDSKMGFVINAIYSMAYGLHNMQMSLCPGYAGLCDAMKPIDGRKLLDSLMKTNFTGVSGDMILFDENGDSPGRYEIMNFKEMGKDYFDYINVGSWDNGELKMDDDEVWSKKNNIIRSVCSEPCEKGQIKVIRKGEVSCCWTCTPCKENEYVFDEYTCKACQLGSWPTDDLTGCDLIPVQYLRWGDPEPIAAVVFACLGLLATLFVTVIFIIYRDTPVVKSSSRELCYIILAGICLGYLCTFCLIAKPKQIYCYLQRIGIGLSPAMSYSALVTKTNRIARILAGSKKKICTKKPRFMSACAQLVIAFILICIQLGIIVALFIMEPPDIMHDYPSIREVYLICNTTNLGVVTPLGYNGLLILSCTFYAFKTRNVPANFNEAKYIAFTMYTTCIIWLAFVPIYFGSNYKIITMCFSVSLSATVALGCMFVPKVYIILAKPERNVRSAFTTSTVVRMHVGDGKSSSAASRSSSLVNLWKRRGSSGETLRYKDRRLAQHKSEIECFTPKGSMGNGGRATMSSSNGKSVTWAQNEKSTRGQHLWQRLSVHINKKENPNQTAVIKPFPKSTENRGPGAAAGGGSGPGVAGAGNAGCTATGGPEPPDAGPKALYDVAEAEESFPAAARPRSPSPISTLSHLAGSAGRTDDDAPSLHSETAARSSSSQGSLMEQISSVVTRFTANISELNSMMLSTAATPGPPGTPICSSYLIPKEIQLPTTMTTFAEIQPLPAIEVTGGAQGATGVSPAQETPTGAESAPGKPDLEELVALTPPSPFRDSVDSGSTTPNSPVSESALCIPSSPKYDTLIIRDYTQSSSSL

[4] = target: Endoplasmic reticulum aminopeptidase 1 (Homo sapiens, UniProt Q9NZ08); assay: ERAP1 aminopeptidase inhibitors, dose response, biochemical, cherry-pick, set 2, plate reader (AID 743314)
Endoplasmic reticulum aminopeptidase 1, sequence (Q9NZ08 whole entry): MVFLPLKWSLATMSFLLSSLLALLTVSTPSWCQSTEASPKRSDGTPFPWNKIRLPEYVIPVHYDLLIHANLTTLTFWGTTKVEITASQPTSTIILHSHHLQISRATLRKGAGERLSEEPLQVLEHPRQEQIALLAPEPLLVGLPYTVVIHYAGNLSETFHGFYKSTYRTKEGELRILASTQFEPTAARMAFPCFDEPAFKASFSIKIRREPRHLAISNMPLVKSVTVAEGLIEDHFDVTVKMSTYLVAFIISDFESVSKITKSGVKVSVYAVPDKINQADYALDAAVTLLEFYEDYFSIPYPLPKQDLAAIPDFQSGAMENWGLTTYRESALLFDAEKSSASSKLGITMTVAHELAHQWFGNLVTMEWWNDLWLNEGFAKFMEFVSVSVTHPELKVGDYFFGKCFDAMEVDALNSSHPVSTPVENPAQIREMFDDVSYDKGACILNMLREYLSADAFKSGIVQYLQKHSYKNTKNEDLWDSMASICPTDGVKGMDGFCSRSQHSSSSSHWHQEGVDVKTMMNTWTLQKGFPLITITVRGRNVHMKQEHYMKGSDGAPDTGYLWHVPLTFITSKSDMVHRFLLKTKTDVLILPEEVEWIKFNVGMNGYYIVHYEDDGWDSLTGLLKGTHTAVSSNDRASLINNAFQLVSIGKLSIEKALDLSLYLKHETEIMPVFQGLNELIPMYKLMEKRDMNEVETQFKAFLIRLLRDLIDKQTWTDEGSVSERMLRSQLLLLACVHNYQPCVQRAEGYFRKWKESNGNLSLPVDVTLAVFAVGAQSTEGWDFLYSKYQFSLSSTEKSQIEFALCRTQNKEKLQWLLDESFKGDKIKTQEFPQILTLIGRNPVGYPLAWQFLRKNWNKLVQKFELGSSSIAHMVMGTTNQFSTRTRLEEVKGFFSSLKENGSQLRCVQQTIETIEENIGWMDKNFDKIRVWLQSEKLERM

[5] = HeLa cell cytotoxicity, dose response, cytotoxicity control, CellTiter-Glo luminescence, dry powder, set 2 (AID 720593); assay type: functional, cell-based
[6] = target: Glutathione-S-transferase (Schistosoma japonicum, UniProt Q26513); assay: biotin-GST/anti-GST TR-FRET signal inhibitors, dose response, artefact control for Vif-APOBEC3G degradation inhibitor project, biochemical (AID 1117362); assay type: functional
Glutathione-S-transferase, sequence (Q26513 whole entry): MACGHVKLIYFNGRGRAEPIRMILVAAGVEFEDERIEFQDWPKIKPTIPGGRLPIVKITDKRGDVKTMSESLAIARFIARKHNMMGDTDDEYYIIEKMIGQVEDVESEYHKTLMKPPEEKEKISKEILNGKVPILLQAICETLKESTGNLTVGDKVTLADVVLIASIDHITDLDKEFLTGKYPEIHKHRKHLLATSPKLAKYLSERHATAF

[7] = THP-1 cell cytotoxicity, dose response, cytotoxicity control for Vif-APOBEC3G degradation inhibitor project, THP-1 cells (AID 1117359); assay type: functional; settings: Human immunodeficiency virus 1, THP-1
[8] = endogenous miR-122 level reduction, dose response, orthogonal assay for miR-122 inhibitor project, cell-based, Huh7, RT-qPCR, dry powder (AID 687041); assay type: functional
[9] = T. cruzi growth inhibition in host cells, dose response, cell-based, plate reader, dry powder, set 2 (AID 652275); assay type: functional
[10] = A Cell-Based Confirmatory Screen for Compounds that Inhibit VEEV, TC-83 (7).; assay type: functional
[11] = A Cell-Based Confirmatory Screen for Compounds that Inhibit VEEV, TC-83 (8).; assay type: functional
cells [12] = assay type: functional, cell-based
HEK293 = assay: inhibitors of LMP1-driven NF-kB reporter, dose response, cell-based, HEK293, luciferase, cherry-pick (AID 588343); assay type: functional; settings: Homo sapiens
[13] = target: T1, Nuclear receptor subfamily 0 group B member 1 (Homo sapiens, UniProt P51843); assay type: functional, cell-based;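 note: HEK293T cells transfected with SF-1 and DAX-1 plus StAR promoter luciferase reporter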
T1 sequence (P51843 whole entry): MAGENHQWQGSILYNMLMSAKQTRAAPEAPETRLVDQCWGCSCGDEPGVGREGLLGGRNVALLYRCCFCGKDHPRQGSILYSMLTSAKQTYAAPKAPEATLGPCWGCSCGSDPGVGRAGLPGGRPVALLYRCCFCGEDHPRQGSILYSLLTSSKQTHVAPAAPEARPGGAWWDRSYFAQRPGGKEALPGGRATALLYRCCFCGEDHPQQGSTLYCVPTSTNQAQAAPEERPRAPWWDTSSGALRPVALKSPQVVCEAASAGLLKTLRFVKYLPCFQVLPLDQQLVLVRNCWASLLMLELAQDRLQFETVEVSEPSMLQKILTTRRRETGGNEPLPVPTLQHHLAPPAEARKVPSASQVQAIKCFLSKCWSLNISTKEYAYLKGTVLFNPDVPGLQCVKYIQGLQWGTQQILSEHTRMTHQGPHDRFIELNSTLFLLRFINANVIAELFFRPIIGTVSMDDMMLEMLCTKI

[14] = MITF Measured in Cell-Based System Using Plate Reader - 2084-01_Inhibitor_Dose_DryPowder_Activity_Set7.; assay type: functional
[15] = SK-MEL-5 parental line viability, dose response, MITF inhibitor project, cell-based, CellTiter-Glo, dry powder, set 6 (AID 624429); assay type: functional
[16] = A375 melanoma cell cytotoxicity, dose response, counter-screen for MITF inhibitor project, CellTiter-Glo luminescence, dry powder, set 7 (AID 624490); assay type: functional, cell-based; settings: A-375
[17] = MITF Measured in Cell-Based System Using Plate Reader - 2084-01_Inhibitor_Dose_DryPowder_Activity_Set6.; assay type: functional
[18] = MITF Orthogonal Assay: SK-MEL-5 CTG Assay Measured in Cell-Based System Using Plate Reader - 2084-02_Inhibitor_Dose_DryPowder_Activity_Set5.; assay type: functional
[19] = target: T2, Heat shock factor protein 1 (Mus musculus, UniProt P38532); assay: HSF1 potentiators in luciferase reporter cells, confirmation, cell-based, NIH3T3, luminescence, dose retest (AID 435004); assay type: functional;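 note: stress induced by proteasome inhibitor MG132 added 30 min after compound; luciferase reporter driven by HSF1 response element in NIH3T3 cells; actives raise luminescence as potentiators of the MG132 stress response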
T2 sequence (P38532 whole entry): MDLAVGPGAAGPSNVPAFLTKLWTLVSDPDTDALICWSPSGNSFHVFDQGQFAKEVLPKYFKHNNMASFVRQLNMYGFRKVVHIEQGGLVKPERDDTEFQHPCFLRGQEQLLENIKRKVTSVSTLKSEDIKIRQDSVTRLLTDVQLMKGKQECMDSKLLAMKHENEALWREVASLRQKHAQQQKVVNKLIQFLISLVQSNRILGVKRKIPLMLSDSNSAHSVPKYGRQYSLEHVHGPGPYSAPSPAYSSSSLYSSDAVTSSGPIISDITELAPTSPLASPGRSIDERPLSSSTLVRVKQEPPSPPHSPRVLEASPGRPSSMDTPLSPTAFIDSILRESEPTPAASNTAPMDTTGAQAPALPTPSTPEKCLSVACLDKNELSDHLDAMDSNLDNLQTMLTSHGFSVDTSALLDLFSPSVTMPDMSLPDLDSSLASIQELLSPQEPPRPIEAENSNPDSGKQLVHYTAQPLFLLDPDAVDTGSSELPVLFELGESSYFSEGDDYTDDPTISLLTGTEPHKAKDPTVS

cells [20] = settings: A549
[21] = HepG2 cell cytotoxicity, dose response, cytotoxicity control, ATP luminescence, cherry-pick, set 6 (AID 1053125); assay type: functional, cell-based
cells [22] = assay: cells
[23] = Late stage assay provider results from the probe development effort to identify inhibitors of the Plasmodium falciparum M17 Leucine Aminopeptidase (M17LAP): radiolabel-based cell-based dose response assay to identify compounds that inhibit P. falciparum growth in RBCs Set 2.; assay type: functional
[24] = Luminescence Cell-Based Dose Response HTS to Identify Inhibitors of 5'UTR Stem-Loop Driven Prion Protein mRNA Translation in H4 Neuroglioblastoma Cells. [Related pubchem assays: 1827 (Project Summary), 1813 (Primary HTS)]; assay type: functional
Genome polyprotein = Genome polyprotein (dengue virus type 2, UniProt P29990); assay: Dengue-2 NS5 methyltransferase inhibitors, primary screen, biochemical, confirmation dose response (AID 588689); assay type: functional
Genome polyprotein, sequence (P29990 2492-3391 limits assumed): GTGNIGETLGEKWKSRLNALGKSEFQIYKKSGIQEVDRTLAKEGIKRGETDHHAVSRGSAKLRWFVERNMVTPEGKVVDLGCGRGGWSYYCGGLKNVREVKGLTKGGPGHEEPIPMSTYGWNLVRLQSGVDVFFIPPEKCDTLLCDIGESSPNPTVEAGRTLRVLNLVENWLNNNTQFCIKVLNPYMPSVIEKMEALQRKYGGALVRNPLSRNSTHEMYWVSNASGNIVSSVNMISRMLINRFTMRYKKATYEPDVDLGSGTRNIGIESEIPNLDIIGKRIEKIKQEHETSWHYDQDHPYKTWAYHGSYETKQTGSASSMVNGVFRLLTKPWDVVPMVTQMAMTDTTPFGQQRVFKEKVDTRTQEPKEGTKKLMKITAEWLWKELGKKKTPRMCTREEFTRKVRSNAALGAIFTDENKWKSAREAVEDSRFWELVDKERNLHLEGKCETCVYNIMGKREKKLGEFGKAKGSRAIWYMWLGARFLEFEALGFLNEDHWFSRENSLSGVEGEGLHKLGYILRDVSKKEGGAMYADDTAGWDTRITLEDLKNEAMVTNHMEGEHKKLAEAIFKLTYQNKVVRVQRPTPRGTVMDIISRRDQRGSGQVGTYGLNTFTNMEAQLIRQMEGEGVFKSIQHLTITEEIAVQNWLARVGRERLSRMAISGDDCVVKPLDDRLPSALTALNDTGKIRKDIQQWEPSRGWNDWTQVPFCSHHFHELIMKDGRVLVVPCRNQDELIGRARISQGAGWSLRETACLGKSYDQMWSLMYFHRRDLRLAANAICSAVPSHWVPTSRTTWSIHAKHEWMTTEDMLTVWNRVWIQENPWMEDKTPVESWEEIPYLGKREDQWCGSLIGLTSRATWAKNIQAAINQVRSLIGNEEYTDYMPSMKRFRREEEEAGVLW

[25] = inhibitors of firefly luciferase expression or activity, dose response, H4 neuroglioma cells, luminescence (AID 1990); assay type: functional, cell-based
[26] = inhibitors of SNCA 5'UTR-driven reporter translation, confirmation, H4 neuroglioma cells, luminescence (AID 1988); assay type: functional, cell-based
[27] = HepG2 cell cytotoxicity, dose response, cytotoxicity control, dry powder samples (AID 720568); assay type: functional, cell-based
[28] = target: T3, Mannose-6-phosphate isomerase (Homo sapiens, UniProt P34949); assay: inhibitors of human PMI, primary screen, biochemical, fluorescence intensity, coupled assay (AID 1209)
T3 sequence (P34949 whole entry): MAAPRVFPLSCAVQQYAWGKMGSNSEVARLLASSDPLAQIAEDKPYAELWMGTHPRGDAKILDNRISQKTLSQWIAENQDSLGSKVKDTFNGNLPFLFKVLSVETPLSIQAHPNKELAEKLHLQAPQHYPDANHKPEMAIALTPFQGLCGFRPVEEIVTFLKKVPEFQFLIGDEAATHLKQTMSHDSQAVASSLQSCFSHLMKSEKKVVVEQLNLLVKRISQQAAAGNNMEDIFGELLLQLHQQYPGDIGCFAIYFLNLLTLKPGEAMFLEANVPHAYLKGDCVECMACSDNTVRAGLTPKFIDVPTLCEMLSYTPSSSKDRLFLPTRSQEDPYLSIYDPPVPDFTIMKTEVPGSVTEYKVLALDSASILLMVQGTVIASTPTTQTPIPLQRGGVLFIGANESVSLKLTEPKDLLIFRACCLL

[29] = target: T4, Methionyl-tRNA synthetase, putative (Trypanosoma brucei brucei, UniProt Q38C91); assay type: functional, Trypanosoma brucei brucei strain 927/4 GUTat10.1
T4 sequence (Q38C91 whole entry): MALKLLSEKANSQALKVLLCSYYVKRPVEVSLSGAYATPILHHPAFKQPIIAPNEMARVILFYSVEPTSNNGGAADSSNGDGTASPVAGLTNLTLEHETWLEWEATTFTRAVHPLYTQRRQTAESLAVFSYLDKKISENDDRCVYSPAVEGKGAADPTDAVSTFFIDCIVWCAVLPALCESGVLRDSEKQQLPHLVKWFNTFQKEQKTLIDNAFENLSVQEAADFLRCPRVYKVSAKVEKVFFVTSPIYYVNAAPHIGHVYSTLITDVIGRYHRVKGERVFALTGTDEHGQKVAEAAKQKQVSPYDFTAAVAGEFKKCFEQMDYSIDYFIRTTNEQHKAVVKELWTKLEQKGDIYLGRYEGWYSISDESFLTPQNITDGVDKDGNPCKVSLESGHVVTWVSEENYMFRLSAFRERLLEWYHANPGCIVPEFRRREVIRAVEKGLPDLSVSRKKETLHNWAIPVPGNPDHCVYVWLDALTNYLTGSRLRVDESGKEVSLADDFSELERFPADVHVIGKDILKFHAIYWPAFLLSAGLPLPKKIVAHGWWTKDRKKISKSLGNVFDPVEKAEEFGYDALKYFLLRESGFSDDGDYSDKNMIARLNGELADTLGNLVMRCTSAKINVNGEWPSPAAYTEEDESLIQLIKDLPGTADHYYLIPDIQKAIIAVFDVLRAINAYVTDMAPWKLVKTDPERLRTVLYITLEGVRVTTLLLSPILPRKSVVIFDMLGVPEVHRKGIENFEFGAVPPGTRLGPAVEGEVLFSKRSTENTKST

[30] = Counterscreen for inhibitors of Trypanosoma brucei methionyl tRNA synthetase (MetRS): Luminescence-based cell-based high throughput dose response assay to identify compounds that are cytotoxic to Jurkat human T lymphocyte cells.; assay type: functional
[31] = target: T4, Methionyl-tRNA synthetase, putative; assay type: functional, Trypanosoma brucei brucei strain 927/4 GUTat10.1; remark: listed apart in the source
cells [32] = settings: HEK293
HeLa = assay: HeLa cell cytotoxicity, dose response, cytotoxicity control, ATP luminescence, cherry-pick samples (AID 687004); assay type: functional, cell-based; settings: Homo sapiens

COCCOCCSc1nnc(-c2ccccc2)o1
AC50 [1]: > 52 µM (inactive)

CCC(C)(C)NC(=O)C(c1ccc(F)cc1)N(Cc1ccco1)C(=O)CCC(=O)Nc1ccccn1 (configuration not stated)
AC50 [2]: > 30 µM (inactive)

CS(=O)(=O)N(CC(=O)N1CCc2ccccc21)c1cc(C(F)(F)F)ccc1Cl
EC50 [3]: 10 µM (inconclusive)

CCCN1[C@@H]2Cn3c(ccc(/C=C/c4ccccc4)c3=O)[C@H]1[C@@H](C(=O)NCc1ccccn1)[C@@H]2CO
AC50 [4]: 8.95 µM (active)

O=C(Nc1nc(-c2ccccn2)cs1)c1ccc(S(=O)(=O)N2CCOCC2)cc1
AC50 [5]: 41.1 µM (active)

COc1ccc2c(c1)O[C@@H](c1ccc3c(c1)OCO3)[C@H](OC(=O)Nc1cc(OC)c(OC)c(OC)c1)C2=O
IC50 [6]: > 100 µM (active) | CC50 [7]: 6.65 µM (active)

Cc1ccc(S(=O)(=O)Nc2ccc3c4c(cccc24)CC3)c(C)c1
AC50 [8]: 0.567 µM (active)

COc1ccc(C#Cc2cccc(-c3nc(C(=O)NCc4ccc5c(c4)OCO5)cc4c3[C@H](CCO)N([S+]([O-])C(C)(C)C)C4)c2)cc1OC (some centres not stated)
AC50 [9]: 0.844 µM (active)

COc1ccc(NC(=O)c2cc([N+](=O)[O-])ccc2/N=C2\CN(C)CCN2C)cc1
IC50 [10]: 0.04 µM (active) | IC50 [11]: 0.037 µM (active)

C(=Cc1nc2ccccc2o1)c1ccc2c(c1)OCO2
IC50 (cells [12]): > 67.6 µM (inactive) | AC50 (HEK293): 2.91 µM (active) | IC50 [13]: > 0.0927 µM (active)

CNC1=CC(=O)c2ccccc2C1=O
AC50 [14]: 17.2 µM (active) | AC50 [15]: 62.6 µM (active) | AC50 [16]: > 70 µM (inactive) | AC50 [17]: 11.3 µM (active) | AC50 [18]: 52.9 µM (active)

COc1ccc(C2C3=C(CCCC3=O)N(CC(=O)O)C3=C2C(=O)CCC3)cc1Cl
EC50 [19]: > 260 µM (inactive) | AC50 (cells [20]): > 52 µM (inactive) | AC50 [21]: > 52 µM (inactive) | AC50 (cells [22]): 2.66 µM (active)

CCCCOc1ccc(CC(=O)N(C)O)cc1
IC50 [23]: 15 µM (inactive)

O=C1CCNc2cc3ccccc3cc21
EC50 [24]: > 120 µM (not active) | IC50 (Genome polyprotein): > 100 µM (active) | EC50 [25]: > 60 µM (not active) | EC50 [26]: 5.91 µM (active) | AC50 [27]: 5.57 µM (active) | IC50 [28]: 23.2 µM (active)

COC(=O)c1sc(-c2ccc(Cl)cc2)cc1NC(=O)COCC(=O)O
IC50 [29]: 18.7 µM (inactive) | IC50 [30]: 83.2 µM (inactive) | IC50 [31]: 13.8 µM (inactive)

N#CC1=C(N)Oc2cc(N)ccc2C1c1ccc(F)cc1F (configuration not stated)
AC50 (cells [20]): 31.8 µM (active) | AC50 [21]: 45.3 µM (active) | AC50 (cells [32]): > 52 µM (inactive)

C(=Nn1cnnc1)c1ccc2c(c1)CCC2
AC50 (HeLa): 28.2 µM (active)

From ChEMBL document CHEMBL1201862, “PubChem BioAssay data set” (2004)
